Reference: ChEMBL document CHEMBL1133150, “N-formyl hydroxylamine containing dipeptides: generation of a new class of vasopeptidase inhibitors” (Bioorg Med Chem Lett, 2000)

Assays:
[1] = target: T1, Angiotensin-converting enzyme (Oryctolagus cuniculus, UniProt P12822); assay: Inhibition of Angiotensin I converting enzyme
T1 sequence (P12822 whole entry): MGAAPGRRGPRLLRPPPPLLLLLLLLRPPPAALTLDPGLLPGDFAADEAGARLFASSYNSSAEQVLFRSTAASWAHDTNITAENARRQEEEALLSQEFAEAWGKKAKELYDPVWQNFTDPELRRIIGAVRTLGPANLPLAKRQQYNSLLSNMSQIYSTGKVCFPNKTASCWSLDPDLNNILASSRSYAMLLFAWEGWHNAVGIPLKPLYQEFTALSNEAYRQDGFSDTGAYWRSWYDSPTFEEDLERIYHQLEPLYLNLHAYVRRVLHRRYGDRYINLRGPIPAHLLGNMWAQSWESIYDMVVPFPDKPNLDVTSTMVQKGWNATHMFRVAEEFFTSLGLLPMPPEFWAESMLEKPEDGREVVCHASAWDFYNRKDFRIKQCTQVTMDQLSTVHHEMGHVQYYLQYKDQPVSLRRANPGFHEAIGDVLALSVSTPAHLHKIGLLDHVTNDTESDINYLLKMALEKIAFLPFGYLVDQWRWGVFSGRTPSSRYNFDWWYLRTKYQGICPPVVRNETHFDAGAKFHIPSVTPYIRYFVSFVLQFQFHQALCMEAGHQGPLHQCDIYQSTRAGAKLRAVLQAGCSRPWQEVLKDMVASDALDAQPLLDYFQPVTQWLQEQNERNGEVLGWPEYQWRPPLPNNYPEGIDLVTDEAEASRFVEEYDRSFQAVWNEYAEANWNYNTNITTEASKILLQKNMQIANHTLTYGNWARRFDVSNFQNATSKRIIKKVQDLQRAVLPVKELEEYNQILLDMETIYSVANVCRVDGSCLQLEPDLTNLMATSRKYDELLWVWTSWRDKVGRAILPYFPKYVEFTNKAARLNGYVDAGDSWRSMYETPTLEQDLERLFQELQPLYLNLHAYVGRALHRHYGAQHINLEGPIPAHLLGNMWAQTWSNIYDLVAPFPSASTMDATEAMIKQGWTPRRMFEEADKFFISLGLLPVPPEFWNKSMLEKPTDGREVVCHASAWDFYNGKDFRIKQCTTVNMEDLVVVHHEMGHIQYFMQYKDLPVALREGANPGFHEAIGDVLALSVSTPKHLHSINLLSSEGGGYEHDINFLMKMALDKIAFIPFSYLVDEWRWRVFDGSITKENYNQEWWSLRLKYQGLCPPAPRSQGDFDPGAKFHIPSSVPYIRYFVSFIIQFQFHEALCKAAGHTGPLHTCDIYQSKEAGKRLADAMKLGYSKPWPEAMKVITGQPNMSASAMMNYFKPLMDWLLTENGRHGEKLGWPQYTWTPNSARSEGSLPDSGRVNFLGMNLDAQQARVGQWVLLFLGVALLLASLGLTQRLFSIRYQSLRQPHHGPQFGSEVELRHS

Neprilysin = target: T2, Neprilysin (Rattus norvegicus, UniProt P07861); assay: Inhibition of Neutral endopeptidase
T2 sequence (P07861 whole entry): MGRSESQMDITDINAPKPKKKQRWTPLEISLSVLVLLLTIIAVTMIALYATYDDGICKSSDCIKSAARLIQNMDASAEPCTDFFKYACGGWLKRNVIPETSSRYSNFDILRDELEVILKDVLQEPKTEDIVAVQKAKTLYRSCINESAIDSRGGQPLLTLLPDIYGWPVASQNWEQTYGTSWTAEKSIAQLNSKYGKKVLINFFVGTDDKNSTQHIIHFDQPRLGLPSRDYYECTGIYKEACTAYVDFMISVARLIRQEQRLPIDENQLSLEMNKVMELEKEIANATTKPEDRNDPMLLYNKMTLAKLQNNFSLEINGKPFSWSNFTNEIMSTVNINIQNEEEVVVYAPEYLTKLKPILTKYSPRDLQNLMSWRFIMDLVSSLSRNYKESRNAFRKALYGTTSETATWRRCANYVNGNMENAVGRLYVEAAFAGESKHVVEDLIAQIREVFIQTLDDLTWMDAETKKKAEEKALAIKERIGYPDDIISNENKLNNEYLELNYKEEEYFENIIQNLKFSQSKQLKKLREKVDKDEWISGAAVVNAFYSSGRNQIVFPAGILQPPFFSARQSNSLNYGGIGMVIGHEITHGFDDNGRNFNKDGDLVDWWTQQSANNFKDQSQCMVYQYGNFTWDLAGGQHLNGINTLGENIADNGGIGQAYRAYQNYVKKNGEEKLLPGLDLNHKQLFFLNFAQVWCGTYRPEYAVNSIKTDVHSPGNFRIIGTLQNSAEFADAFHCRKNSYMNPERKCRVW

`CC(C)[C@H](NCP(=O)(O)O)C(=O)N[C@@H](Cc1ccc(-c2ccccc2)cc1)C(=O)O` was tested, and the IC50 [1] was 25 nM and the IC50 (Neprilysin) was 3 nM.
Work on `CC(C)C[C@H](NC(=O)[C@H](Cc1ccccc1)N(O)C=O)C(=O)N[C@@H](Cc1ccccc1)C(=O)O` yielded an IC50 [1] of 228000 nM and an IC50 (Neprilysin) of 93000 nM.
`CC(C)C[C@H](NC(=O)C(Cc1ccccc1)CN(O)C(N)=O)C(=O)N[C@@H](Cc1ccccc1)C(=O)O` (stereo not given in full) was tested, and the IC50 [1] was 529000 nM and the IC50 (Neprilysin) was 705000 nM.
`CC(=O)N(O)CC(Cc1ccccc1)C(=O)N[C@@H](CC(C)C)C(=O)N[C@@H](Cc1ccccc1)C(=O)O` (stereo not given in full) gave an IC50 [1] of 461000 nM and an IC50 (Neprilysin) of 214000 nM.
Work on `O=CN(O)C[C@@H](Cc1ccccc1)C(=O)N[C@H]1CCc2ccccc2N(CC(=O)O)C1=O` yielded an IC50 [1] of 5.3 nM and an IC50 (Neprilysin) of 1.3 nM.
Work on `CC(C)C[C@H](NC(=O)C(Cc1ccccc1)CN(O)C=O)C(=O)N[C@@H](Cc1ccccc1)C(=O)O` (stereo not given in full) yielded an IC50 [1] of 106 nM and an IC50 (Neprilysin) of 1270 nM.
`O=C(N[C@H]1CCS[C@H]2CCC[C@@H](C(=O)O)N2C1=O)[C@@H](S)Cc1ccccc1` [OMAPATRILAT] was tested, and the IC50 [1] was 6 nM and the IC50 (Neprilysin) was 9 nM.
Work on `CS(=O)(=O)N[C@@H](CCCCN)C(=O)NC[C@H](CC1(C(=O)N[C@@H](Cc2ccc(O)cc2)C(=O)O)CCCC1)C(=O)O` [SAMPATRILAT] yielded an IC50 [1] of 7 nM and an IC50 (Neprilysin) of 20 nM.
`O=CN(O)C[C@@H](Cc1ccccc1)C(=O)N[C@H]1Cc2ccccc2[C@H]2CCC[C@@H](C(=O)O)N2C1=O` showed an IC50 [1] of 3.4 nM and an IC50 (Neprilysin) of 1.8 nM.
In the case of `CC1(C)CCC[C@H](NC(=O)[C@H](Cc2ccccc2)CN(O)C=O)C(=O)N1CC(=O)O`, the IC50 [1] is reported as 5.4 nM and the IC50 (Neprilysin) is reported as 18 nM.
